EC50 data for 36 molecules are collected here from patent US20120178742A1, “METABOTROPIC GLUTAMATE RECEPTOR MODULATORS” (MERZ PHARMA GmbH & CO. KGaA, priority 2009, published 2012).

T1 sequence (P31424 21-1203): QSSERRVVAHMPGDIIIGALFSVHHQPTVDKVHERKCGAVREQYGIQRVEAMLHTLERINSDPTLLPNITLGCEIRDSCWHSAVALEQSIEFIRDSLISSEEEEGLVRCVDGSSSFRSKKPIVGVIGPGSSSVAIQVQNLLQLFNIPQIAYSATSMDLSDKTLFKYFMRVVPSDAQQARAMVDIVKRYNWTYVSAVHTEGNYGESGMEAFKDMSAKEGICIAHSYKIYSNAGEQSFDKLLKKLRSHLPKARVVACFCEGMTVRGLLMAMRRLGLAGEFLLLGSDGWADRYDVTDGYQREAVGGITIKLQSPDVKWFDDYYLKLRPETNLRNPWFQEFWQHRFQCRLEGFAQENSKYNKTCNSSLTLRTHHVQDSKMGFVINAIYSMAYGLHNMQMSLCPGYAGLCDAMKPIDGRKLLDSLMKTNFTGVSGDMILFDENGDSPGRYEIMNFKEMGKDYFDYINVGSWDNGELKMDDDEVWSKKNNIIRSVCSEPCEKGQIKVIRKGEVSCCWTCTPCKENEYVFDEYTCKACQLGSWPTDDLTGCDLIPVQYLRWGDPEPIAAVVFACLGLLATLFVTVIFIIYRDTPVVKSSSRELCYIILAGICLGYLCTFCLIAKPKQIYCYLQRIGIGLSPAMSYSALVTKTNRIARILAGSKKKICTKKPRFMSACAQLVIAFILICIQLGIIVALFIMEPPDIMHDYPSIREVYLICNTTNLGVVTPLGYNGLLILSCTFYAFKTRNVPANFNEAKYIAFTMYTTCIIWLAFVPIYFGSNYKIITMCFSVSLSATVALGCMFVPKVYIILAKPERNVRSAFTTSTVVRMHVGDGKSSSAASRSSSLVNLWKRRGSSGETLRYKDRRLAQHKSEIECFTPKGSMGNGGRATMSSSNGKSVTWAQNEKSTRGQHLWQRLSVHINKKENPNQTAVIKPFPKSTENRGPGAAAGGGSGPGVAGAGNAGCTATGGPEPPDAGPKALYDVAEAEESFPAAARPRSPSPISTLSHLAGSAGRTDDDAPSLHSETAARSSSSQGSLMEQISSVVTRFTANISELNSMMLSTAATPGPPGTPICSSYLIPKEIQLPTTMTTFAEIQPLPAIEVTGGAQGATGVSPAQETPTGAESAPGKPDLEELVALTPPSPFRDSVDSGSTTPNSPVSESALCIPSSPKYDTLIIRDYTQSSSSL
T2 sequence (P41594 21-1212): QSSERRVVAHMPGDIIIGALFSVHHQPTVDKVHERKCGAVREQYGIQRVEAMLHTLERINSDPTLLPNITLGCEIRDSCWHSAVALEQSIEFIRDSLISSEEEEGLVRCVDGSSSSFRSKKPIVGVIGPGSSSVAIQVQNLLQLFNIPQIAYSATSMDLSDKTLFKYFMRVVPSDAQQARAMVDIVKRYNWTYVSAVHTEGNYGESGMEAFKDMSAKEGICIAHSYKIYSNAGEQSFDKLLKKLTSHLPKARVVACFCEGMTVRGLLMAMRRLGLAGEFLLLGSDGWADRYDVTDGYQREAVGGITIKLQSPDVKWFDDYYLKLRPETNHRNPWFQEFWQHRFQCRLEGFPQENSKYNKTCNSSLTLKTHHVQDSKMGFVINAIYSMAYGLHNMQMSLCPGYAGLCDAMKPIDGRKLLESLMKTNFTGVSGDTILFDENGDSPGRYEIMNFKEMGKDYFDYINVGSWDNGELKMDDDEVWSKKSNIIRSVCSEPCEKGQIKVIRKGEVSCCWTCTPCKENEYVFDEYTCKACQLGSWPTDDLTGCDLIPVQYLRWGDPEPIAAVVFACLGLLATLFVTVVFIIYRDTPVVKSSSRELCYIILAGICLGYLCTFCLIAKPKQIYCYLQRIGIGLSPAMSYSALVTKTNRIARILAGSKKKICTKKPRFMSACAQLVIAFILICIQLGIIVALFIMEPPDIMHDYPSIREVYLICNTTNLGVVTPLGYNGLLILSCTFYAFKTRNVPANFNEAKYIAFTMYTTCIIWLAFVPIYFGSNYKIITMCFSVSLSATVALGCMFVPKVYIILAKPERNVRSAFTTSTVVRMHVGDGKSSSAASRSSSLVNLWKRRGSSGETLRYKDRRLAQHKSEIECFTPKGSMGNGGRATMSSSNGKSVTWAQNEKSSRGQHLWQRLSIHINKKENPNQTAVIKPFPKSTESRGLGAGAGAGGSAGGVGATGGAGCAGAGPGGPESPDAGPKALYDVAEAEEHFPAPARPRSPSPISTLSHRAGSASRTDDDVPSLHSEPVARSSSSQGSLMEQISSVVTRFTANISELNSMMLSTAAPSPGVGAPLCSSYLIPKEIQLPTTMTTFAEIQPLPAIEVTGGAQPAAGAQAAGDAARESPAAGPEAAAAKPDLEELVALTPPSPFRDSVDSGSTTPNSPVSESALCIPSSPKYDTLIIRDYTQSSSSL

The first test concerns the target T1, mGluR5 receptors (Rattus norvegicus, UniProt P31424).
T1 construct: Primary astrocyte cultures are prepared from cortices of newborn rats; endogenous in cells; host or cells: primary rat cortical astrocytes (Sprague-Dawley pups)
As to the kind of experiment: Cytosolic calcium studies with cultured rat astrocytes. It is filed as cell-based. How it is done: Primary astrocyte cultures are prepared from cortices of newborn rats as described by Booher and Sensenbrenner (1972, Neurobiology 2(3):97-105). Briefly, Sprague-Dawley rat pups (2-4 d old) are decapitated and neocortices are dissected, disintegrated with a nylon filter (pore size 80 μm) and carefully triturated. The cell suspension is plated on poly-D-lysine pre-coated flasks (Costar, Netherlands) and cultivated in Dulbecco's Modified Eagle's Medium (DMEM, Invitrogen, Germany) supplemented with 10% foetal calf serum (FCS, Sigma, Germany), 4 mM glutamine and […] gentamycin (both Biochrom, Germany) at 37° C. in a humidified atmosphere of 5% CO2/95% air for 7 days with exchanging the medium at day 2 and 6.
After 7 days in vitro (DIV), cells are shaken overnight at 250 rpm to remove oligodendrocytes and microglia. The next day, astrocytes are rinsed twice with CMF-PBS (calcium- and magnesium-free phosphate buffered saline, Biochrom, Germany), trypsinized and subplated on poly-D-lysine pre-coated 96-well plates (Greiner, Germany) at a density of 40,000 cells/well. 24 h after establishing the secondary culture the astrocytes are rinsed with PBS″ (phosphate buffered saline, Biochrom, Germany) and fed with astrocyte-defined medium (ADM) consisting of DMEM containing 1× G5-supplement (Invitrogen, Germany), 0.5 μg/ml heparan sulfate, and 1.5 μg/ml fibronectin (both Sigma, Germany) (Miller et al., (1993) Brain Res. 618(1):175-8). 3 days later the medium is exchanged and the cells incubated for another 2-3 days, so that at the time of experiments astrocytes are 14-15 DIV.
The increase of cytosolic calcium after stimulation with the mGluR5 agonist L-quisqualate is measured using a fluorometric imaging plate reader (FLIPR) and the Ca-Kit (both Molecular Devices). Prior to addition of agonist or antagonist the medium is aspirated and cells are loaded for 2 h at RT with 150 μl of loading buffer consisting of Ca-sensitive dye reconstituted in sodium chloride (123 mM), potassium chloride (5.4 mM), magnesium chloride (0.8 mM), calcium chloride (1.8 mM), D-glucose (15 mM), and HEPES (20 mM), pH 7.3. Subsequently, plates are transferred to FLIPR to detect calcium increase with the addition of L-quisqualate (100 nM) measured as relative fluorescence units (RFU). If antagonists are tested, these compounds are pre-incubated for 10 minutes at RT before addition of the respective agonist.
Thereafter, concentration-response curves for the positive modulator are performed in the presence of a fixed concentration of quisqualate showing the biggest window for potentiation (normally 10-30 nM).
(§1) The fluorescence signal increase after addition of agonist reflects the increase of cytosolic calcium. Inconsistencies in the amount of cells per well are normalised by using the spatial uniformity correction of the FLIPR operating software Screenworks. The mean of replicated temporal data (n=3-5) is calculated and used for graphical representation. For the evaluation of the pharmacology, the calcium changes in response to different concentrations of agonist or antagonist are determined using a maximum minus minimum (MaxMin) calculation.
(§2) All responses (RFU-values) are determined as percentage of control (=maximum response). EC50 and IC50 are calculated according the logistic equation using Prism 4.0 (GraphPad Software, USA).
Turning to `Fc1ccc(C#Cc2cnc3ncsc3c2)c(F)c1` [Example 79, 6-((2,4-Difluorophenyl)ethynyl)thiazolo[4,5-b]pyridine], the EC50 is 0.22 µM.

For `Oc1ccc(C#Cc2cnc3nccnc3c2)cc1` [Example 90, 4-(Pyrido[2,3-b]pyrazin-7-ylethynyl)phenol], the EC50 is 1 µM.

Turning to `O=C(c1nc2ccc(C#Cc3ccccc3F)cn2n1)N1CCCCC1` [Example 58, [6-(2-Fluoro-phenylethynyl)-[1,2,4]triazolo[1,5-a]pyridin-2-yl]-piperidin-1-yl-methanone], the concentration giving a half-maximal response (EC50) turned out to be 1.1 µM.

In the case of `C(#Cc1cnc2cccnc2c1)c1ccccc1` [Example 41, 3-Phenylethynyl-[1,5]naphthyridine], the concentration giving a half-maximal response (EC50) is 0.005 µM.

The next test has as its target T2, human metabotropic glutamate receptor mGluR5 (Homo sapiens, UniProt P41594).
T2 construct: expressed in transfected cells; host or cells: CHO-K1
As to the kind of experiment: Cytosolic calcium studies with stably transfected cells (CHO-K1). It is filed as cell-based. How it is done:
Functional Assay of mGluR5 Receptors Cytosolic Calcium Studies with Stably Transfected Cells
Chinese hamster ovary cells (CHO-K1 cells), stably transfected for inducible expression of a human metabotropic glutamate receptor mGluR5, are seeded into black clear bottom 96 well plates at a density of 35.000 cells per well. The standard growth medium used (Dulbecco's modified Eagle Medium, DMEM plus L-proline) contains the appropriate inducer isopropyl-β-D-thiogalactopyranosid (IPTG) to achieve optimal receptor expression. One day after seeding the growth medium is exchanged for reconstituted Ca-Kit (Molecular Devices, USA) and incubated for one hour. Ca-Kit is reconstituted in an assay buffer containing 20 mM HEPES pH 7.4, glutamic-pyruvate transaminase, pyridoxal phosphate and sodium pyruvate in Hank's balanced salt solution (HBBS). Agonistic compounds to the receptor elicit increases in cytosolic calcium which can be measured as increases in fluorescence signals by use of a fluorescence imaging plate reader (Molecular Devices). […] Similarly, for the characterization of positive allosteric modulators, a dilution series of the test compound is added online to 384 well plates containing the described dye loaded cells and after a preincubation time of 5 minutes stimulated by a basal cell concentration of the agonist L-glutamate giving about 20% of the maximal signal.
as §1, §2
Turning to `Fc1ccc(C#Cc2cnc3ncsc3c2)c(F)c1` [Example 79, 6-((2,4-Difluorophenyl)ethynyl)thiazolo[4,5-b]pyridine], the EC50 was determined as 0.31 µM.

For `O=C(c1nc2ccc(C#Cc3cccc(F)c3)cn2n1)N1CCCCC1` [Example 57, [6-(3-Fluoro-phenylethynyl)-[1,2,4]triazolo[1,5-a]pyridin-2-yl]-piperidin-1-yl-methanone], the EC50 turned out to be 1.2 µM.

As for `COc1cnc2ncc(C#Cc3ccccc3)cc2n1` [Example 92, 2-Methoxy-7-(phenylethynyl)pyrido[2,3-b]pyrazine], the EC50 was determined as 0.28 µM.

In the case of `O=C(c1nc2ccc(C#Cc3ccc(F)cc3)cn2n1)N1CCCCC1` [Example 59, [6-(4-Fluoro-phenylethynyl)-[1,2,4]triazolo[1,5-a]pyridin-2-yl]-piperidin-1-yl-methanone], the EC50 stood at 6.9 µM.

As to `Clc1cc(Cl)cc(C#Cc2cnc3ccnn3c2)c1` [Example 2, 6-(3,5-Dichloro-phenylethynyl)-pyrazolo[1,5-a]pyrimidine], the EC50 was 0.52 µM.

Consider `C(#Cc1ccc2ccnn2c1)c1ccccc1` [Example 29, 6-Phenylethynyl-pyrazolo[1,5-a]pyridine], for which the EC50 was 0.078 µM.

In the case of `Cn1cnc2cc(C#Cc3cccc(F)c3)cnc21` [Example 105, 6-(3-Fluoro-phenylethynyl)-3-methyl-3H-imidazo[4,5-b]pyridine], the EC50 worked out at 0.021 µM.

As to `CC(C)(C)OC(=O)N1CC=C(C#Cc2cnc3ccnn3c2)CC1` [Example 12, 4-Pyrazolo[1,5-a]pyrimidin-6-ylethynyl-3,6-dihydro-2H-pyridine-1-carboxylic acid tert-butyl ester], the 50% effective concentration (EC50) is 1.3 µM.

With `Fc1cccc(C#Cc2ccc3ncnn3c2)c1` [Example 53, 6-(3-Fluoro-phenylethynyl)-[1,2,4]triazolo[1,5-a]pyridine], the half-maximal effective concentration (EC50) is 0.43 µM.

For the molecule `Fc1cccc(F)c1C#Cc1cnc2ncsc2c1` [Example 78, 6-((2,6-Difluorophenyl)ethynyl)thiazolo[4,5-b]pyridine], the concentration for a half-maximal effect (EC50) worked out at 1.7 µM.

Take `Fc1ccc(C#Cc2cnc3ncoc3c2)cc1` [Example 70, 6-(4-Fluoro-phenylethynyl)-oxazolo[4,5-b]pyridine]: the EC50 was determined as 1.4 µM.

For `C(#Cc1ccc2ccnn2c1)C1=CCCCC1` [Example 30, 6-Cyclohex-1-enylethynyl-pyrazolo[1,5-a]pyridine], the EC50 worked out at 0.029 µM.

Turning to `C(#Cc1cnc2ncoc2c1)C1=CCCCC1` [Example 71, 6-Cyclohex-1-enylethynyl-oxazolo[4,5-b]pyridine], the EC50 was found to be 0.0063 µM.

On to `O=C(c1cc2ncc(C#Cc3ccccc3)cn2n1)N1CCC(c2ccccc2)CC1` [Example 18, (6-Phenylethynyl-pyrazolo[1,5-a]pyrimidin-2-yl)-(4-phenyl-piperidin-1-yl)-methanone], for which the 50% effective concentration (EC50) amounted to 0.34 µM.

With `Fc1cccc(F)c1C#Cc1cnc2nccnc2c1` [Example 107, 7-((2,6-Difluorophenyl)ethynyl)pyrido[2,3-b]pyrazine], the EC50 came out at 3.7 µM.

Consider `O=C(c1nc2ncc(C#Cc3ccccc3)cn2n1)N1CCCCC1` [Example 36, (6-Phenylethynyl-[1,2,4]triazolo[1,5-a]pyrimidin-2-yl)-piperidin-1-yl-methanone], for which the concentration for a half-maximal effect (EC50) worked out at 0.94 µM.

Consider `C(#Cc1ccc2nc(-c3ccco3)nn2c1)c1ccccc1` [Example 84, 2-Furan-2-yl-6-phenylethynyl-[1,2,4]triazolo[1,5-a]pyridine], for which the EC50 turned out to be 0.41 µM.

With `C(#Cc1cnc2cccnc2c1)c1cccnc1` [Example 101, 3-(Pyridin-3-ylethynyl)-1,5-naphthyridine], the EC50 worked out at 0.47 µM.

Consider `Fc1ccc(-c2cc3ncc(C#Cc4ccccc4)cn3n2)cc1` [Example 28, 2-(4-Fluoro-phenyl)-6-phenylethynyl-pyrazolo[1,5-a]pyrimidine], for which the EC50 is 0.093 µM.

Consider `Fc1cc(F)cc(C#Cc2cnc3ccnn3c2)c1` [Example 11, 6-(3,5-Difluoro-phenylethynyl)-pyrazolo[1,5-a]pyrimidine], for which the EC50 was determined as 0.2 µM.

Regarding `Clc1cccc(C#Cc2cnc3nccnc3c2)c1` [Example 111, 7-((3-Chlorophenyl)ethynyl)pyrido[2,3-b]pyrazine], the EC50 is 0.12 µM.

Take `C(#Cc1cnc2ccnn2c1)Cc1ccccc1` [Example 14, 6-(3-Phenyl-prop-1-ynyl)-pyrazolo[1,5-a]pyrimidine]: the EC50 came out at 0.12 µM.

Take `Cc1ccccc1C#Cc1cnc2nccnc2c1` [Example 87, 7-(o-Tolylethynyl)-pyrido[2,3-b]pyrazine]: the EC50 turned out to be 1.1 µM.

Take `Cc1ccc(C#Cc2cnc3ccnn3c2)cc1` [Example 9, 6-p-Tolylethynyl-pyrazolo[1,5-a]pyrimidine]: the concentration giving a half-maximal response (EC50) came out at 0.077 µM.

`O=C(c1cc2ncc(C#Cc3ccccc3)cn2n1)N1CCCC1` [Example 19, (6-Phenylethynyl-pyrazolo[1,5-a]pyrimidin-2-yl)-pyrrolidin-1-yl-methanone]: the EC50 amounted to 0.61 µM.

Turning to `Cn1cnc2cc(C#Cc3ccc(F)cc3)cnc21` [Example 106, 6-(4-Fluoro-phenylethynyl)-3-methyl-3H-imidazo[4,5-b]pyridine], the concentration for a half-maximal effect (EC50) was 0.057 µM.

For `O=C(c1cc2ncc(C#Cc3ccccc3)cn2n1)N1CCCCCC1` [Example 17, Azepan-1-yl-(6-phenylethynyl-pyrazolo[1,5-a]pyrimidin-2-yl)-methanone], the EC50 was 0.26 µM.

Consider `Fc1cc(F)cc(C#Cc2cnc3nccnc3c2)c1` [Example 108, 7-((3,5-Difluorophenyl)ethynyl)pyrido[2,3-b]pyrazine], for which the 50% effective concentration (EC50) was 4.1 µM.

For the molecule `Fc1ccccc1C#Cc1cnc2ncnn2c1` [Example 48, 6-(2-Fluoro-phenylethynyl)-[1,2,4]triazolo[1,5-a]pyrimidine], the EC50 was found to be 1 µM.

On to `C(#Cc1cnc2ncoc2c1)c1ccccc1` [Example 42, 6-Phenylethynyl-oxazolo[4,5-b]pyridine], for which the EC50 came to 0.47 µM.

As for `Cc1ccc(C#Cc2cnc3cccnc3c2)c(F)c1` [Example 115, 3-((2-Fluoro-4-methylphenyl)ethynyl)-[1,5]naphthyridine], the 50% effective concentration (EC50) was found to be 0.69 µM.

For `Fc1ccc(C#Cc2cnc3nccnc3c2)c(F)c1` [Example 109, 7-((2,4-Difluorophenyl)ethynyl)pyrido[2,3-b]pyrazine], the EC50 was found to be 3.5 µM.

As to `Fc1ccc(C#Cc2cnc3ncnn3c2)cc1` [Example 49, 6-(4-Fluoro-phenylethynyl)-[1,2,4]triazolo[1,5-a]pyrimidine], the 50% effective concentration (EC50) was found to be 1.8 µM.
